Experimental data from US20100022574A1, “Methods to Treat Pain Using an Alpha-2 Adrenergic Agonist and an Endothelin Antagonist” (EndogenX, Inc., priority 2008, published 2010).
“Also recorded” adds a separate entry of the source. Counter-ions that a name gives are not always drawn. Like-named read-outs stand apart in the source and are kept apart here.

Key:
rats = details: for effect of antagonist on Clonidine potentiation of Morphine analgesia / effect of antagonist on Clonidine potentiation of Oxycodone analgesia: idazoxan 2 mg/kg ip or yohimbine 2 mg/kg ip given 15 min before clonidine 1 mg/kg ip; for effect of antagonist on Clonidine potentiation of Oxycodone analgesia / AUC0→360 of tail flick latency / effect on Oxycodone analgesia / effect on oxycodone analgesia in rats treated with BMS182874: oxycodone 4 mg/kg sc; for AUC0→360 of tail flick latency: each agent alone: morphine 8 mg/kg sc, Mean±S.E.M., n=6; for AUC0→360 of tail flick latency / analgesic effect of the agent alone (tail flick latency): clonidine 1 mg/kg ip; for AUC0→360 of tail flick latency / analgesic effect of the agent alone (tail flick latency) / effect on morphine analgesia in rats treated with BMS182874 / effect on oxycodone analgesia in rats treated with BMS182874: BMS182874 50 μg icv; for effect on Morphine analgesia / effect on Oxycodone analgesia: clonidine 1 mg/kg ip or BMS182874 50 μg icv; for effect on Morphine analgesia: morphine 8 mg/kg sc; for effect on morphine analgesia in rats treated with BMS182874: morphine 4 mg/kg sc
α2-adrenergic receptors = details: cited from earlier work
I1-imidazoline receptors = details: cited from earlier work
ETA receptors = target: T1, ETA receptors (Homo sapiens, UniProt P25101); details: membrane preparations; read-out: IC50, inhibition of binding of ET-1 to ETA receptors; cited from earlier work
T1 sequence (P25101 21-427): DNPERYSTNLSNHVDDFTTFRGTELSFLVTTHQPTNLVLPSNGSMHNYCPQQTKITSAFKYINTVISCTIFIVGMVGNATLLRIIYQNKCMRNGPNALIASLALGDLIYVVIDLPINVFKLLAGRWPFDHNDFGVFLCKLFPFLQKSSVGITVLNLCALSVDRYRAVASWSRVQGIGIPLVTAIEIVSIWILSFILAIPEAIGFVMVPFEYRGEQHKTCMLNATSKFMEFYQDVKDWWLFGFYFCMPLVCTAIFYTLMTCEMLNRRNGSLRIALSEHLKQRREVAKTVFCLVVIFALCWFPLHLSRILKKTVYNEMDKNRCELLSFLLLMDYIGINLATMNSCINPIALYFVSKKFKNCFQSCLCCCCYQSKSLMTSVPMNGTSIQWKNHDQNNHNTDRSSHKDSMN

ETB receptors = target: T2, ETB receptors (Homo sapiens, UniProt P24530); details: membrane preparations; read-out: IC50, inhibition of binding of ET-1 to ETB receptors; cited from earlier work
T2 sequence (P24530 27-442): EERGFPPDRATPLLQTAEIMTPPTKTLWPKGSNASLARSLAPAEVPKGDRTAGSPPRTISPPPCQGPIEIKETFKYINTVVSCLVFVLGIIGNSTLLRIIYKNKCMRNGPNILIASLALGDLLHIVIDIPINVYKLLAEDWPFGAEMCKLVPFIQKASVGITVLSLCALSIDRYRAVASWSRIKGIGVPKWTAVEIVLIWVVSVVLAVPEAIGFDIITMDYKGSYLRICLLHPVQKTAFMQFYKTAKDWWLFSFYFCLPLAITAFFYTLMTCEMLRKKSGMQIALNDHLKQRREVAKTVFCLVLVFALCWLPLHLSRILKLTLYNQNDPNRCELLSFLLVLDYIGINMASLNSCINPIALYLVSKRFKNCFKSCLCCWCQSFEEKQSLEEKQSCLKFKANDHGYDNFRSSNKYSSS

[1] = cited from earlier work
[2] = cited from earlier work; remark: listed apart in the source
Male Swiss Webster mice = experiment: Tail-flick latency (antinociception) in mice; details: for tail flick latency, fold above vehicle: clonidine 0.3 mg/ml
[3] = system: patients having coronary artery bypass graft surgery; details: cited from earlier work
μ-opioid receptors = μ-opioid receptors (Homo sapiens, UniProt P35372); details: relative to morphine; cited from earlier work
Sequence of μ-opioid receptors (P35372 whole entry): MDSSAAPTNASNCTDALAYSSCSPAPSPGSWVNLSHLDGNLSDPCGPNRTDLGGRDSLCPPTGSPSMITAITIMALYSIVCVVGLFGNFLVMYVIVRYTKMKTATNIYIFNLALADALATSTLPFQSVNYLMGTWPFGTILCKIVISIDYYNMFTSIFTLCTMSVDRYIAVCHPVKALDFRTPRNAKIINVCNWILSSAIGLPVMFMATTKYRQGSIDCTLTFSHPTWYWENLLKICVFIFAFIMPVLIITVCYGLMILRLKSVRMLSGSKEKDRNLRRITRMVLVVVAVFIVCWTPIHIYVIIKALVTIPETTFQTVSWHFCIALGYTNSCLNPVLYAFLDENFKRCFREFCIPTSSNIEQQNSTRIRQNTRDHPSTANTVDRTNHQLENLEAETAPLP

goats = details: epidural; cited from earlier work
[4] = system: patients after spinal fusion; details: cited from earlier work
healthy volunteers = details: clonidine 0.2 mg p.o., alone or with naloxone; cited from earlier work

Compound: c1ccc2c(c1)OCC(C1=NCCN1)O2 (stereo not shown) [Idazoxan, 2-(1,4-benzodioxan-2-yl)-2-imidazoline]
- effect of antagonist on Clonidine potentiation of Morphine analgesia (rats; rats): did not affect; also recorded: No effect
- effect of antagonist on Clonidine potentiation of Oxycodone analgesia (rats; rats): Blocked
- Ki (α2-adrenergic receptors): 0.0036 µM
- Ki (I1-imidazoline receptors): 0.186 µM

Compound: 4-amino-N-(3,4-dimethyloxazol-5-yl)-benzenesulfonamide [Sulfisoxazole]
- IC50 (ETA receptors): 0.6 µM
- IC50 (ETB receptors): 22 µM
- solubility [1]: highly soluble
- average steady state plasma concentration, mean ([2]; 500 mg oral four times a day, healthy volunteers): 63.4 µg/mL
- drug excreted in urine by kidney ([2]; in 24 hours): 95%
- binding to plasma proteins ([2]; in vivo): extensively bound to plasma proteins
- maximum blood level (adverse reactions more frequent above) ([2]; in vivo): ≤ 200 µg/mL
- potentiation of antinociception produced by morphine (Male Swiss Webster mice; sulfisoxazole 500 mg/kg oral + morphine 4 mg/kg s.c., AUC): 14%

Compound: COC(=O)[C@@H]1[C@H]2C[C@H]3c4[nH]c5ccccc5c4CCN3C[C@@H]2CC[C@@H]1O [Yohimbine, 17α-hydroxy-yohimban-16α-carboxylate hydrochloride]
- effect of antagonist on Clonidine potentiation of Morphine analgesia (rats; rats, hydrochloride): Blocked
- effect of antagonist on Clonidine potentiation of Oxycodone analgesia (rats; rats, hydrochloride): Blocked
- Ki (α2-adrenergic receptors): 0.022 µM
- Ki (I1-imidazoline receptors): 21.8 µM

Compound: CN1CC[C@]23c4c5ccc(O)c4O[C@H]2[C@@H](O)C=C[C@H]3[C@H]1C5.O=S(=O)(O)O [Morphine, 7,8-didehydro-4,5α-epoxy-17-methylmorphinan-3,6α-diol sulfate]
- morphine dosage in the first 24 h [median (25th-75th percentiles)] ([3]; i.v. morphine group (PCA alone, control)): 37 (30.5-51) mg
- time to extubation ([3]; i.v. morphine group): 330 (300-360) min
- morphine dosage in the first 24 h [median (25th-75th percentiles)] ([3]; intrathecal morphine group (4 microg/kg plus i.v. PCA morphine)): 40.5 (15-61.5) mg

Compound: COc1ccc2c3c1O[C@H]1C(=O)CC[C@@]4(O)[C@@H](C2)N(C)CC[C@]314.Cl [Oxycodone, 4,5α-epoxy-14-hydroxy-3-methoxy-17-methylmorphinan-6-one hydrochloride]
- AUC0→360 of tail flick latency (rats; rats): 18.23±2.32 sec.min
- affinity to the μ-opioid receptors, times less than morphine (μ-opioid receptors): > 20 times

Compound: N=C(N)NC(=O)Cc1c(Cl)cccc1Cl [guanfacine]
- duration of antinociception (goats): 8 h

Compound: Cc1noc(NS(=O)(=O)c2cccc3c(N(C)C)cccc23)c1C [BMS182874, 5-(dimethylamino)-N-(3,4-dimethyl-5-isoxazolyl)-1-naphthalene sulfonamide]
- effect on analgesic activity of clonidine (rats; rats, BMS182874 50 μg icv 15 min before clonidine 1.0 mg/kg ip): did not affect
- analgesic effect of the agent alone (tail flick latency) (rats; rats): did not produce any analgesic effect
- effect on Morphine analgesia (rats; rats): significantly potentiated; also recorded: Increase
- effect on Oxycodone analgesia (rats; rats): potentiated; also recorded: Increase
- AUC0→360 of tail flick latency (rats; rats): 4.47±1.49 sec.min
- effect on the fall in temperature induced by clonidine (Body temperature in mice; BMS182874 2.0, 10.0, 50.0 μg/kg icv, clonidine 0.3 mg/kg i.p.): did not affect
- increase in tail flick latency (Male Swiss Webster mice; BMS182874 10 μg/kg icv + clonidine 0.3 mg/kg i.p., 1 and 2 hours post treatment, compared to vehicle of FIG. 5A): 5 fold
- increase in tail flick latency (Male Swiss Webster mice; BMS182874 10 μg/kg icv + clonidine 0.3 mg/kg i.p., 4 hours post treatment): approximately 3 fold
- increase in tail flick latency (Male Swiss Webster mice; BMS182874 10 μg/kg icv + clonidine 0.3 mg/kg i.p., by 6 hours post treatment): 2 fold
- effect on clonidine analgesia (Male Swiss Webster mice; BMS182874 low and high dose (2.0 and 50.0 μg/kg, icv), clonidine 0.3 mg/kg i.p.): moderately potentiated
- effect on the analgesic effect of clonidine (Male Swiss Webster mice; BMS182874 middle dose 10 μg/kg icv, clonidine 0.3 mg/kg i.p.): potentiated

Compound: Clc1cccc(Cl)c1NC1=NCCN1 [Clonidine, N-(2,6-dichlorophenyl)-4,5-dihydro-1H-imidazol-2-amine]
- effect on morphine analgesia in rats treated with BMS182874 (rats; clonidine 0.1 mg/kg ip): did not produce an increase in analgesic effect
- effect on oxycodone analgesia in rats treated with BMS182874 (rats; clonidine 0.1 mg/kg ip): did not produce an increase in analgesic effect
- effect on morphine analgesia in rats treated with BMS182874 (rats; clonidine 0.3 mg/kg ip): significant (P=0.016 and P=0.011, respectively) increase
- effect on oxycodone analgesia in rats treated with BMS182874 (rats; clonidine 0.3 mg/kg ip): significant (P=0.02 and P=0.031, respectively) increase
- effect on morphine analgesia in rats treated with BMS182874 (rats; clonidine 1.0 mg/kg ip): significant (P=0.016 and P=0.011, respectively) increase
- effect on oxycodone analgesia in rats treated with BMS182874 (rats; clonidine 1.0 mg/kg ip): significant (P=0.02 and P=0.031, respectively) increase
- analgesic effect of the agent alone (tail flick latency) (rats; rats): produced significant (P=0.00086) analgesia
- effect on Morphine analgesia (rats; rats): significantly potentiated; also recorded: Increase
- effect on Oxycodone analgesia (rats; rats): potentiated; also recorded: Increase
- AUC0→360 of tail flick latency (rats; rats): 16.62±1.61 sec.min
- Ki (α2-adrenergic receptors): 0.0038 µM
- Ki (I1-imidazoline receptors): 0.001 µM
- pain score (visual analog scale) after clonidine ([4]; clonidine 5 micrograms/kg i.v. in 1st h then 0.3 microgram/kg/h for 11 h, mean±standard error): 26±3 mm
- change in mean arterial pressure ([4]; clonidine group at T11): −26±2%
- pain score (visual analog scale) before clonidine ([4]; clonidine group, starting value, mean±standard error): 42±5 mm
- mean arterial pressure ([4]; clonidine group): 74±2 mmHg
- morphine requirement, dose for each patient ([4]; clonidine group, i.m. morphine on demand): 3.8 ± 1 mg
- duration of antinociception (goats): 5.5 h
- duration of increased subjective and objective pain thresholds (healthy volunteers): at least 4 hours
- effect on body temperature (Body temperature in mice; clonidine 0.3, 1.0, 3.0 mg/kg i.p., all doses): decreased body temperature
- AUC0→240 min from tail flick latency (Male Swiss Webster mice; Example 3, mice, morphine 4 mg/kg s.c., clonidine 2 mg/kg i.p. 30 min before morphine or vehicle, mean±SEM, N=6): 68.4±12.3
- AUC of tail flick latency compared to control mice (Male Swiss Webster mice; Example 5 study 2, clonidine 2 mg/kg i.p. alone, sulfisoxazole 1000 mg/kg oral alone): produced an increase in AUC
- increase in tail flick latency (Male Swiss Webster mice; clonidine 0.3 mg/kg plus CMC, 2 hours post injury): 5 fold
- tail flick latency at late time (Male Swiss Webster mice; clonidine 0.3 mg/kg plus CMC, by 6 hours): decreased to approximately the level of vehicle treated animals
- tail flick latency, fold above vehicle (Male Swiss Webster mice; at 3 hours): approximately 3 fold
- tail flick latency, fold above vehicle (Male Swiss Webster mice; by 5 hours): 2.5 fold
- tail flick latency, fold above vehicle (Male Swiss Webster mice; immediately after injury): up to 4 fold
- tail flick latency, fold over vehicle (Male Swiss Webster mice; clonidine 1.0 mg/kg i.p., at approximately 6 hours): 3 fold
- tail flick latency, fold over vehicle (Male Swiss Webster mice; clonidine 1.0 mg/kg i.p., up to approximately 3 hours): approximately 5 fold
- enhancement of the antinociception produced by morphine (Male Swiss Webster mice; clonidine 2 mg/kg i.p. + morphine 4 mg/kg s.c., AUC): 42%
- tail flick latency, fold over vehicle (Male Swiss Webster mice; clonidine 3.0 mg/kg i.p., all time points measured): approximately 5 fold
